Experiments:
[1] = biological target: T1, Human glucocorticoid receptors (Homo sapiens, UniProt P04150); assay: Radioligand filter binding assay, displacement of 3[H]-dexamethasone from hGR; settings: read-out: GR Binding (% Inhibition at 1.7 μM)
T1 construct: made in house; host or cells: Sf9 insect cells, recombinant baculovirus (BAC-TO-BAC)
T1 sequence (P04150 1-777): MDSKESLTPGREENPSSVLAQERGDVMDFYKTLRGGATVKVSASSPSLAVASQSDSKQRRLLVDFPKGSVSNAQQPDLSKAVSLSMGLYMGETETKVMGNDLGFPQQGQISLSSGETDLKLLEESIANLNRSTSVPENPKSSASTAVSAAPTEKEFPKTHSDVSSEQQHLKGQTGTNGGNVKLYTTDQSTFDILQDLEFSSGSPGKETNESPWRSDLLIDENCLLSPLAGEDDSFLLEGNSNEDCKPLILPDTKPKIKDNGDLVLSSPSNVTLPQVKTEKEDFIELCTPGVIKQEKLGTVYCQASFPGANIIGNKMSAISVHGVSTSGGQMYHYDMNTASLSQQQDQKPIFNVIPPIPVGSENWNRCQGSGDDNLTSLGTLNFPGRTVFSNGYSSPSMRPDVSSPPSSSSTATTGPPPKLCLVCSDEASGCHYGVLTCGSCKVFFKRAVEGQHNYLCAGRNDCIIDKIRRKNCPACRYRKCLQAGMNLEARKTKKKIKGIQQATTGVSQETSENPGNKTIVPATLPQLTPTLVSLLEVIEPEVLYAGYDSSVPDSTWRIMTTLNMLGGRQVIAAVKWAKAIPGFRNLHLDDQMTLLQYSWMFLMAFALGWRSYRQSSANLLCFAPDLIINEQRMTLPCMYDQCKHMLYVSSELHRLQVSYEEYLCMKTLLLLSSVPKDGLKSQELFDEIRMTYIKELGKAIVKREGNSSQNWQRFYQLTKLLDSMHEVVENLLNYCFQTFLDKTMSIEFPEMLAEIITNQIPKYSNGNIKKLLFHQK
Method in brief: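 Recombinant hGR extract from baculovirus-infected Sf9 cells (final ~1 nM receptor) incubated with ³H-dexamethasone and test compound dilutions in duplicate, EDTA/phosphate pH 8 buffer with MTG, overnight (15-20 h) at +4° C. Bound label collected on PEI-treated GF/B filters and scintillation-counted; IC50 from four-parameter fit of corrected cpm.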

[2] = biological target: T2, progesterone receptor (PR) (Homo sapiens, UniProt P06401); assay: Radioligand binding assay for progesterone receptor (similar protocol);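 note: radioligand binding measured with cytosol preparations containing the human progesterone receptor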
T2 sequence (P06401 1-933): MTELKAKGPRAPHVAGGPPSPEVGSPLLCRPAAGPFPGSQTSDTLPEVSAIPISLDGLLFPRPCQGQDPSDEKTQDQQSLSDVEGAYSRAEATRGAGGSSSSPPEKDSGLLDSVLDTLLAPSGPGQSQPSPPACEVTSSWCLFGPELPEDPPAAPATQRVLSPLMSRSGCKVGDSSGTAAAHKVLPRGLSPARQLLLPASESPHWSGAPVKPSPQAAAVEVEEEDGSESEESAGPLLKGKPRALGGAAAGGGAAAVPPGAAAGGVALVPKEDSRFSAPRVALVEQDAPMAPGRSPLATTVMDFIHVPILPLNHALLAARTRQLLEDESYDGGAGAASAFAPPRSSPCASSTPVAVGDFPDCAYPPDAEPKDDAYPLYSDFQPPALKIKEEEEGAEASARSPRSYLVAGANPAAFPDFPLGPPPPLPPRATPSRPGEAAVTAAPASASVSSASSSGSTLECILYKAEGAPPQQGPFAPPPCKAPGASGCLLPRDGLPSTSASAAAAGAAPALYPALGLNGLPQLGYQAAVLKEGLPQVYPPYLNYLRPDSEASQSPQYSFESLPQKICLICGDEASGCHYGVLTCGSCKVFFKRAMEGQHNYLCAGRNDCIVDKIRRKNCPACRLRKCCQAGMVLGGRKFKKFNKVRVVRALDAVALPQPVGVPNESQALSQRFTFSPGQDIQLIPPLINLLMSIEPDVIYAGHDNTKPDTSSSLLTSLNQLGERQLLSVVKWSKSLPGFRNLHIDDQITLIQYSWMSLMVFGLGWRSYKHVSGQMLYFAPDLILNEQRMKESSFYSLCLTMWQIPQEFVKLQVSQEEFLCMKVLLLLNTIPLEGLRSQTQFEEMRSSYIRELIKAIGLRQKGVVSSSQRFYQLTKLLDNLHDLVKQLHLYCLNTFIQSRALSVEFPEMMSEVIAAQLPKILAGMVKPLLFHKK
From the text: Methods for Radiolipand Binding Studies with Human Glucocorticoid and Progesterone Receptor Cytosol

| Structure (SMILES) | inhibition at 1.7 µM [1] | IC50 [2] |
| --- | --- | --- |
| CCOC(=O)/C=C/c1c(NS(C)(=O)=O)cccc1N(Cc1ccccc1)Cc1ccccc1 [Example 40, N-[3-(dibenzylamino)-2-((E)-3-ethoxy-3-oxo-1-propenyl)phenyl]methanesulfonamide] | 87% | > 10000 nM |
| CCCOc1ccc(CN(Cc2ccc(F)cc2F)c2cccc(NS(C)(=O)=O)c2C)cc1 [Example 43, N-{3-[(2,4-difluorobenzyl)(4-propoxybenzyl)amino]-2-methylphenyl}methanesulfonamide] | 91.1% | 660 nM |
| COCCOc1cc(Oc2ccc(CN(Cc3ccccc3)c3cccc(NS(C)(=O)=O)c3C)cc2)ccc1CCCC(=O)O [Example 63] | 96.2% | 648 nM |
| CCOC(=O)CCCc1ccc(Oc2ccc(CN(Cc3ccccc3)c3cccc(NS(C)(=O)=O)c3C)cc2)cc1 [Example 64, ethyl 4-(4-{4-[(benzyl{2-methyl-3-[(methylsulfonyl)amino]phenyl}amino)methyl]phenoxy}phenyl)butanoate] | 93.5% | 1180 nM |
| Cc1c(NS(C)(=O)=O)cccc1N(Cc1ccccc1)Cc1ccc(Oc2cccc(CCCO)c2)cc1 [Example 65, N-[3-(benzyl{4-[3-(3-hydroxypropyl)phenoxy]benzyl}amino)-2-methylphenyl]methanesulfonamide] | 94% | 633 nM |
| COC(=O)c1cccc(Oc2ccc(CN(Cc3ccc(F)cc3F)c3cccc(NS(C)(=O)=O)c3C)cc2)c1 [Example 67, methyl 3-{4-[((2,4-difluorobenzyl){2-methyl-3-[(methylsulfonyl)amino]phenyl}amino)methyl]phenoxy}benzoate] | 89% | 667 nM |
| COCCOCCOc1cccc(Oc2ccc(CN(Cc3ccccc3)c3cccc(NS(C)(=O)=O)c3C)cc2)c1 [Example 69, N-{3-[benzyl(4-{3-[2-(2-methoxyethoxy)ethoxy]phenoxy}benzyl)amino]-2-methylphenyl}methanesulfonamide] | 86.9% | 122 nM |
| Cc1c(NS(C)(=O)=O)cccc1N(Cc1ccccc1)Cc1ccc(Oc2cccc(OCCCNS(C)(=O)=O)c2)cc1 [Example 71, N-[3-(3-{4-[(benzyl{2-methyl-3-[(methylsulfonyl)amino]phenyl}amino)methyl]phenoxy}phenoxy)propyl]methanesulfonamid] | 95.2% | 537 nM |
| Cc1c(NS(C)(=O)=O)cccc1N(Cc1ccccc1)Cc1ccc(Oc2cccc(OCCCN(C)C)c2)cc1 [Example 72, N-{3-[benzyl(4-{3-[3-(dimethylamino)propoxy]phenoxy}benzyl)amino]-2-methylphenyl}methanesulfonamide] | 92% | 462 nM |
| Cc1c(NS(C)(=O)=O)cccc1N(Cc1ccc(Oc2ccc(CCCC(=O)NCCCN3CCCC3=O)cc2)cc1)Cc1ccc(F)cc1F [Example 75, 4-(4-{4-[((2,4-difluorobenzyl){2-methyl-3-[(methylsulfonyl)amino]phenyl}amino)methyl]phenoxy}phenyl)-N-[3-(2-oxopyrrolidin-1-yl)propyl]butanamide] | 98.3% | 2350 nM |
| Cc1c(NS(C)(=O)=O)cccc1N(Cc1ccc(Oc2ccc(CCC(=O)O)cc2)cc1)Cc1ccccc1Br [Example 76, 3-(4-{4-[((2-bromobenzyl){2-methyl-3-[(methylsulfonyl)amino]phenyl}amino)methyl]phenoxy}phenyl)propanoic acid] | 96.5% | 149 nM |
| Cc1c(NS(C)(=O)=O)cccc1N(Cc1ccccc1)Cc1ccc(Oc2ccc(Br)c(OCC(=O)O)c2)cc1 [Example 77, (5-{4-[(benzyl{2-methyl-3-[(methylsulfonyl)amino]phenyl}amino)methyl]phenoxy}-2-bromophenoxy)acetic acid] | 97.1% | 249 nM |
| Cc1c(NS(C)(=O)=O)cccc1N(Cc1ccccc1)Cc1ccc(Oc2cccc(OCCNC(=O)CCC(=O)O)c2)cc1 [Example 78, 4-{[2-(3-{4-[(benzyl{2-methyl-3-[(methylsulfonyl)amino]phenyl}amino)methyl]phenoxy}phenoxy)ethyl]amino}-4-oxobutanoic acid] | 97.3% | > 1000 nM |
| Cc1c(NS(C)(=O)=O)cccc1N(Cc1ccccc1)Cc1ccc(Oc2cccc(OCCNC(=O)CCCC(=O)O)c2)cc1 [Example 79, 5-{[2-(3-{4-[(benzyl{2-methyl-3-[(methylsulfonyl)amino]phenyl}amino)methyl]phenoxy}phenoxy)ethyl]amino}-5-oxopentanoic acid] | 97.2% | 1100 nM |
| Cc1c(NS(C)(=O)=O)cccc1N(Cc1ccccc1)Cc1ccc(Oc2cccc(OCCNS(C)(=O)=O)c2)cc1 [Example 81, N-[2-(3-{4-[(benzyl{2-methyl-3-[(methylsulfonyl)amino]phenyl}amino)methyl]phenoxy}phenoxy)ethyl]methanesulfonamide] | 96.2% | 622 nM |
| Cc1c(NS(C)(=O)=O)cccc1N(Cc1ccc(Oc2cccc(OCC(=O)O)c2)cc1)Cc1ccc(Cl)cc1F [Example 83, (3-{4-[((4-chloro-2-fluorobenzyl){2-methyl-3-[(methylsulfonyl)amino]phenyl}amino)methyl]phenoxy}phenoxy)acetic acid] | 98.1% | 177 nM |
| Cc1c(NS(C)(=O)=O)cccc1N(Cc1ccc(Oc2ccc(CCC(=O)O)cc2)cc1)Cc1ccccc1F [Example 84, 3-(4-{4-[((2-fluorobenzyl){2-methyl-3-[(methylsulfonyl)amino]phenyl}amino)methyl]phenoxy}phenyl)propanoic acid] | 97.9% | 468 nM |
| Cc1c(NS(C)(=O)=O)cccc1N(Cc1ccc(F)cc1)Cc1ccc(Oc2ccc(CCC(=O)O)cc2)cc1 [Example 85, 3-(4-{4-[((4-fluorobenzyl){2-methyl-3-[(methylsulfonyl)amino]phenyl}amino)methyl]phenoxy}phenyl)propanoic acid] | 96.9% | 351 nM |
| Cc1c(NS(C)(=O)=O)cccc1N(Cc1ccccc1)Cc1ccc(Oc2ccc(CCCCO)cc2)cc1 [Example 101, N-[3-(benzyl{4-[4-(4-hydroxybutyl)phenoxy]benzyl}amino)-2-methylphenyl]methanesulfonamide] | 92.9% | 1030 nM |
| Cc1c(NS(C)(=O)=O)cccc1N(Cc1ccccc1)Cc1ccc(Oc2ccc(CCC(=O)NCC(=O)O)cc2)cc1 [Example 104, N-[3-(4-{4-[(benzyl{2-methyl-3-[(methylsulfonyl)amino]phenyl}amino)methyl]phenoxy}phenyl)propanoyl]glycine] | 95.7% | 583 nM |
| Cc1c(NS(C)(=O)=O)cccc1N(Cc1ccccc1)Cc1ccc(Oc2ccc(CCC(=O)NCCC(=O)O)cc2)cc1 [Example 105, N-[3-(4-{4-[(benzyl{2-methyl-3-[(methylsulfonyl)amino]phenyl}amino)methyl]phenoxy}phenyl)propanoyl]-beta-alanine] | 96.2% | 685 nM |

From patent US6583180B2, “Glucocorticoid receptor modulators” (Abbott Laboratories, priority 2001, dated 2003)
